Measurements taken from ChEMBL document CHEMBL1201862, “PubChem BioAssay data set” (2004).
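Following 48 hours of exposure in 96-well plates, responses at five concentrations were used to interpolate endpoints linearly. Here, GI50 denotes the concentration required for 50% inhibition of growth.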 The source made the active and inactive calls. No stated cut-off is given here; in the data, active = GI50 up to about 1.1 µM and inactive = higher.

Experiments:
Test in all cases: DTP human tumour cell line panel, 48 h
TK-10 = test system: TK-10
RXF 393 = test system: RXF 393
HCC 2998 = test system: HCC 2998
T47D = test system: T47D
OVCAR-8 = test system: OVCAR-8
HCT-15 = test system: HCT-15
LOX IMVI = test system: LOX IMVI
MOLT-4 = test system: MOLT-4
SF-539 = test system: SF-539
HOP-92 = test system: HOP-92
A498 = test system: A498
MDA-MB-231 = test system: MDA-MB-231
UO-31 = test system: UO-31
Malme-3M = test system: Malme-3M
UACC-257 = test system: UACC-257
NCI/ADR-RES = test system: NCI/ADR-RES
EKVX = test system: EKVX
HT-29 = test system: HT-29
SNB-75 = test system: SNB-75
CCRF-CEM = test system: CCRF-CEM

Row | SMILES | GI50 (TK-10) | GI50 (RXF 393) | GI50 (HCC 2998) | GI50 (T47D) | GI50 (OVCAR-8) | GI50 (HCT-15) [µM] | GI50 (LOX IMVI) | GI50 (MOLT-4) | GI50 (SF-539) | GI50 (HOP-92) | GI50 (A498) | GI50 (MDA-MB-231) | GI50 (UO-31) | GI50 (Malme-3M) | GI50 (UACC-257) | GI50 (NCI/ADR-RES) | GI50 (EKVX) | GI50 (HT-29) | GI50 (SNB-75) | GI50 (CCRF-CEM)
1 | O=C1c2ccccc2-c2c1c1ccccc1c(=O)n2CCO | > 50.5 µM (inactive) | 32.1 µM (inactive) | 24.8 µM (inactive) | 23.6 µM (inactive) | 9.38 µM (inactive) | 5.83 | 5.28 µM (inactive) | 2.14 µM (inactive) | 10.6 µM (inactive) | 29.5 µM (inactive) | 35 µM (inactive) | 46 µM (inactive) | 4.06 µM (inactive) | 26.5 µM (inactive) | > 79.6 µM (inactive) | 14.6 µM (inactive) | 10 µM (inactive) | 7.14 µM (inactive) | 25.4 µM (inactive) | 3.49 µM (inactive)
2 | O=C(O)c1ccccc1/C=C1/Nc2ccccc2C1=O | > 100 µM (inactive) | > 100 µM (inactive) | > 100 µM (inactive) | 51.8 µM (inactive) | > 100 µM (inactive) | 41.5 | 75.9 µM (inactive) | 91.4 µM (inactive) | 92.9 µM (inactive) | > 100 µM (inactive) | > 100 µM (inactive) | > 100 µM (inactive) | 50 µM (inactive) | > 100 µM (inactive) | > 100 µM (inactive) | > 100 µM (inactive) | 60 µM (inactive) | 67.9 µM (inactive) | > 100 µM (inactive) | 44.9 µM (inactive)
3 | CN(C)CCN(c1ccccn1)c1ccccn1 | > 100 µM (inactive) | > 100 µM (inactive) | > 100 µM (inactive) | > 100 µM (inactive) | > 100 µM (inactive) | > 100 | > 100 µM (inactive) | > 100 µM (inactive) | > 100 µM (inactive) | > 100 µM (inactive) | > 100 µM (inactive) | > 100 µM (inactive) | > 100 µM (inactive) | > 100 µM (inactive) | > 100 µM (inactive) | > 100 µM (inactive) | > 100 µM (inactive) | > 100 µM (inactive) | > 100 µM (inactive) | > 100 µM (inactive)
4 | Cc1cc(=O)oc2c(C3=NN(C=O)C(c4ccccc4)C3)c(O)ccc12 (stereo not given) | 57.4 µM (inactive) | 38.2 µM (inactive) | > 87.7 µM (inactive) | > 100 µM (inactive) | 71.1 µM (inactive) | > 78.5 | > 72.4 µM (inactive) | > 73.6 µM (inactive) | 52.4 µM (inactive) | 23 µM (inactive) | > 56.2 µM (inactive) | 59.6 µM (inactive) | 64.3 µM (inactive) | > 71.9 µM (inactive) | 83.4 µM (inactive) | 61.9 µM (inactive) | 72.6 µM (inactive) | > 80.7 µM (inactive) | 3.22 µM (inactive) | 60.5 µM (inactive)
5 | Cc1nc(=O)[nH]c2c1C(=O)N(C(C)C)C(NC(C)C)S2 (stereo not given) | > 100 µM (inactive) | > 100 µM (inactive) | > 100 µM (inactive) | 90.2 µM (inactive) | > 100 µM (inactive) | 93.8 | 83.6 µM (inactive) | > 100 µM (inactive) | > 100 µM (inactive) | 97.7 µM (inactive) | > 100 µM (inactive) | > 100 µM (inactive) | > 100 µM (inactive) | 57.7 µM (inactive) | > 100 µM (inactive) | > 100 µM (inactive) | > 100 µM (inactive) | > 100 µM (inactive) | > 100 µM (inactive) | > 100 µM (inactive)
6 | CCN(CCO)CCNc1ccc(C)c2sc3ccccc3c(=O)c12 | 8.81 µM (inactive) | 1.25 µM (inactive) | 2.28 µM (inactive) | 3.01 µM (inactive) | 4.06 µM (inactive) | 4.15 | 2.24 µM (inactive) | 4.43 µM (inactive) | 3.75 µM (inactive) | 4.37 µM (inactive) | 15 µM (inactive) | 1.88 µM (inactive) | 5.41 µM (inactive) | 3.44 µM (inactive) | 2.75 µM (inactive) | 3.07 µM (inactive) | 12.5 µM (inactive) | 2.52 µM (inactive) | 3.01 µM (inactive) | 6.04 µM (inactive)
7 | C=CCN1C[C@H](C)N([C@H](c2ccc(C(=O)NC(CC)CC)cc2)c2cccc(OC)c2)C[C@H]1C | 66.4 µM (inactive) | 33.7 µM (inactive) | 29.2 µM (inactive) | 29 µM (inactive) | 62.5 µM (inactive) | 29.4 | 4.38 µM (inactive) | > 100 µM (inactive) | 20.4 µM (inactive) | 31.7 µM (inactive) | 21.7 µM (inactive) | 28 µM (inactive) | 21.2 µM (inactive) | 20.4 µM (inactive) | 26.2 µM (inactive) | 42.8 µM (inactive) | 79.4 µM (inactive) | 25.1 µM (inactive) | > 100 µM (inactive) | 41.4 µM (inactive)
8 | COc1ccccc1NC1Oc2cc3c(cc2C(c2cc(OC)c(OC)c(OC)c2)C1C)OCO3 (stereo not given) | > 100 µM (inactive) | 1.14 µM (inactive) | 3.04 µM (inactive) | 5.86 µM (inactive) | 4.69 µM (inactive) | 3.06 | 6.62 µM (inactive) | 3.8 µM (inactive) | 1.7 µM (inactive) | 3.24 µM (inactive) | 4.9 µM (inactive) | 1.78 µM (inactive) | 3.58 µM (inactive) | 0.383 µM (active) | 8.17 µM (inactive) | 2.59 µM (inactive) | > 26.1 µM (inactive) | 2.11 µM (inactive) | 0.951 µM (active) | 2.37 µM (inactive)
9 | O=C(CSc1nc(O)nc2[nH]cnc12)Nc1ccccc1 | > 100 µM (inactive) | > 100 µM (inactive) | > 100 µM (inactive) | > 100 µM (inactive) | > 100 µM (inactive) | 61.9 | 54.5 µM (inactive) | 93.5 µM (inactive) | 26.2 µM (inactive) | > 100 µM (inactive) | 76.7 µM (inactive) | > 100 µM (inactive) | > 100 µM (inactive) | > 100 µM (inactive) | 86.9 µM (inactive) | > 100 µM (inactive) | > 100 µM (inactive) | > 100 µM (inactive) | > 100 µM (inactive) | 33.7 µM (inactive)
10 | O=C(Nc1c(Cl)cc([N+](=O)[O-])cc1Cl)C(=O)C1C(=O)NC(=S)NC1=O | > 100 µM (inactive) | > 100 µM (inactive) | > 100 µM (inactive) | > 100 µM (inactive) | > 100 µM (inactive) | > 100 | > 100 µM (inactive) | > 10 µM (inactive) | > 100 µM (inactive) | > 100 µM (inactive) | > 100 µM (inactive) | > 100 µM (inactive) | > 100 µM (inactive) | > 100 µM (inactive) | > 100 µM (inactive) | > 100 µM (inactive) | > 100 µM (inactive) | > 100 µM (inactive) | > 100 µM (inactive) | > 100 µM (inactive)
11 | [N-]=[N+]=Nc1ccc(CNc2cc(=O)[nH]c(=O)[nH]2)cc1 | > 100 µM (inactive) | > 100 µM (inactive) | > 100 µM (inactive) | > 100 µM (inactive) | > 100 µM (inactive) | > 100 | > 100 µM (inactive) | > 100 µM (inactive) | > 100 µM (inactive) | > 100 µM (inactive) | > 100 µM (inactive) | > 100 µM (inactive) | > 100 µM (inactive) | > 100 µM (inactive) | > 100 µM (inactive) | > 100 µM (inactive) | > 100 µM (inactive) | > 100 µM (inactive) | > 100 µM (inactive) | > 100 µM (inactive)
12 | CC(=O)Oc1ccc(C)c2c1[C@H]1CC[C@]3(C)[C@@H](OC(C)=O)CC[C@H]3[C@@H]1CC2 | 26.5 µM (inactive) | 19.1 µM (inactive) | 18 µM (inactive) | 19.3 µM (inactive) | 22.4 µM (inactive) | 17.8 | 17 µM (inactive) | 16 µM (inactive) | 19.6 µM (inactive) | 16.9 µM (inactive) | 17.6 µM (inactive) | 18.2 µM (inactive) | 39.3 µM (inactive) | 15.7 µM (inactive) | 17.9 µM (inactive) | 18.2 µM (inactive) | 15.5 µM (inactive) | 17.1 µM (inactive) | 24.9 µM (inactive) | 21.9 µM (inactive)
13 | c1cc(C[S+]2CCCC2)ccc1C[S+]1CCCC1 | > 100 µM (inactive) | > 100 µM (inactive) | > 100 µM (inactive) | > 100 µM (inactive) | > 100 µM (inactive) | > 100 | > 100 µM (inactive) | > 100 µM (inactive) | > 100 µM (inactive) | > 100 µM (inactive) | 29.2 µM (inactive) | > 100 µM (inactive) | > 100 µM (inactive) | > 100 µM (inactive) | > 100 µM (inactive) | > 100 µM (inactive) | > 100 µM (inactive) | > 100 µM (inactive) | 52.1 µM (inactive) | > 100 µM (inactive)
